The values that follow come from patent US20170224679A1, “Use of CXCR2 Antagonists For The Prevention and/or Treatment of Chemotherapy Induced Peripheral Neuropathy (CIPN)” (GlaxoSmithKline Intellectual Property Development Limited, priority 2014, published 2017).

This experiment deals with T1, CXCR1 receptor (Homo sapiens, UniProt P25024).
T1 sequence (P25024 1-350): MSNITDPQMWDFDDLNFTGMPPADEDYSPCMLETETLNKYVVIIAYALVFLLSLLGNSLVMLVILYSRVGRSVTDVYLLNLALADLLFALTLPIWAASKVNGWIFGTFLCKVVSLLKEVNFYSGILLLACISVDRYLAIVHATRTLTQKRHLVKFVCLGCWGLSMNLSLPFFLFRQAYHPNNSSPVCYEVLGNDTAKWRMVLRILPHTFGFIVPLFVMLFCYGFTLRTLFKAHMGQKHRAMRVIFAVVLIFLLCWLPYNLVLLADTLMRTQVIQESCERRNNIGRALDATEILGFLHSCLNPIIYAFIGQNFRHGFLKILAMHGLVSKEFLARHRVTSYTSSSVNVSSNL
Nature of the experiment: GPCR Arrestin Assay (DiscoveRX PathHunter), CXCR1. The conditions noted are these: PathHunter CHO cells, agonist at EC80; read-out: pIC50 against the CXCR1 receptor (converted). Also noted: host or cells: PathHunter CHO cell lines. Format: cell-based. How it is done: Certain compounds of the invention were also tested by DiscoveRX Corporation (42501 Albrae Street, Fremont, Calif. 94538, United States) in their GPCR Arrestin Assay to determine their activity against a panel of receptors including CXCR2 and CXCR1. PathHunter CHO cell lines were expanded from freezer stocks according to standard procedures. Cells were seeded in a total volume of 20 μL into white walled, 384-well microplates and incubated at 37° C. for the appropriate time prior to testing. The cells were pre-incubated with antagonist followed by agonist challenge at the EC80 concentration. Intermediate dilution of sample stocks was performed to generate 5× sample in assay buffer. 5 μL of 5× sample was added to cells and incubated at 37° C. or room temperature for 30 minutes. […] Assay signal was generated through a single addition of 12.5 or 15 μL (50% v/v) of PathHunter Detection reagent cocktail, followed by one hour incubation at room temperature. Microplates were read following signal generation with a PerkinElmer Envision™ instrument for chemiluminescent signal detection. Compound activity was analyzed using CBIS data analysis suite (ChemInnovation, Calif.).

In the case of `CN1CCC(C)(S(=O)(=O)c2c(Cl)ccc(NC(=O)Nc3cccc(F)c3Cl)c2O)CC1` [Compound of Formula (D), 1-(4-chloro-3-((1,4-dimethylpiperidin-4-yl)sulfonyl)-2-hydroxyphenyl)-3-(2-chloro-3-fluorophenyl)urea], the IC50 was 2.51 µM.
